Drawing on ChEMBL document CHEMBL3352163, “Anthracene-9, 10-dione derivatives induced apoptosis in human cervical cancer cell line (CaSki) by interfering with HPV E6 expression” (Eur J Med Chem, 2014), this text covers Activity, IC50 and inhibition for seven compounds.

Test [1] relates to HepG2. Description: Cytotoxicity against human HepG2 cells at 10 uM after 72 hrs by MTT assay. It is filed as functional. On the technique in general: Formazan colour is commonly taken as a measure of viable cells.
Test [2] is described as follows: Cytotoxicity against human CaSki cells at 10 uM after 72 hrs by MTT assay. It is filed as functional, Ca-Ski.
Test [3] deals with SW-620. As to the kind of experiment: Cytotoxicity against human SW620 cells at 10 uM after 72 hrs by MTT assay. It is filed as functional.
The nature of test [4]: Cytotoxicity against human ChaGo cells at 10 uM after 72 hrs by MTT assay. It is filed as functional.
The nature of test [5]: Cytotoxicity against human KATO III cells at 10 uM after 72 hrs by MTT assay. It is filed as functional, KATO III cell.
The nature of test [6]: Cell cycle arrest in human CaSki cells assessed as accumulation at G0 phase at 1.5 uM after 24 hrs by propidium iodide staining-based FACS analysis (reference value: 1.5%). It is filed as functional. The note with it: Ca-Ski. For orientation: A flow cytometer gives signals particle by particle.
The nature of test [7]: Cell cycle arrest in human CaSki cells assessed as accumulation at G1 phase at 0.3 uM after 24 hrs by propidium iodide staining-based FACS analysis (reference value: 61.3%). It is filed as functional. The note with it: Ca-Ski.
Test [8] in a line: Cell cycle arrest in human CaSki cells assessed as accumulation at G2/M phase at 3 uM after 24 hrs by propidium iodide staining-based FACS analysis (reference value: 18.0%). It is filed as functional. As to conditions: Ca-Ski.
Test [9] has as its system Ca-Ski. Description: Cytotoxicity against human CaSki cells at 10 uM in presence of glutathione relative to control. It is filed as functional, cell-based.
The nature of test [10]: Cell cycle arrest in human CaSki cells assessed as accumulation at G2/M phase at 1.5 uM after 24 hrs by propidium iodide staining-based FACS analysis (reference value: 18.0%). It is filed as functional. As to conditions: Ca-Ski.
Test [11] in a line: Cell cycle arrest in human CaSki cells assessed as accumulation at G1 phase at 1.5 uM after 24 hrs by propidium iodide staining-based FACS analysis (reference value: 61.3%). It is filed as functional. The note with it: Ca-Ski.
Test [12] is described as follows: Cell cycle arrest in human CaSki cells assessed as accumulation at G2/M phase at 0.3 uM after 24 hrs by propidium iodide staining-based FACS analysis (reference value: 18.0%). It is filed as functional. As to conditions: Ca-Ski.
Test [13] is described as follows: Cell cycle arrest in human CaSki cells assessed as accumulation at S phase at 0.3 uM after 24 hrs by propidium iodide staining-based FACS analysis (reference value: 14.1%). It is filed as functional. As to conditions: Ca-Ski.
Test [14] in a line: Cell cycle arrest in human CaSki cells assessed as accumulation at G0 phase at 0.3 uM after 24 hrs by propidium iodide staining-based FACS analysis (reference value: 1.5%). It is filed as functional. The note with it: Ca-Ski.
Test [15] can be described thus: Cell cycle arrest in human CaSki cells assessed as accumulation at S phase at 1.5 uM after 24 hrs by propidium iodide staining-based FACS analysis (reference value: 14.1%). It is filed as functional. The note with it: Ca-Ski.
A short description of test [16]: Cytotoxicity against human WI38 cells after 72 hrs by MTT assay. It is filed as cell-based. As to conditions: WI-38, 72 h.
A short description of test [17]: Cell cycle arrest in human CaSki cells assessed as accumulation at G2/M phase after 24 hrs by propidium iodide staining-based FACS analysis. It is filed as functional. The note with it: Ca-Ski.
Test [18] relates to Ca-Ski. As to the kind of experiment: Induction of apoptosis in human CaSki cells carrying HPV assessed as downregulation of Akt phosphorylation after 24 hrs by Western blotting analysis. It is filed as functional, cell-based. On the technique in general: Immunoblotting shows a protein as a band on a membrane.
Test [19] in a line: Cell cycle arrest in human CaSki cells assessed as accumulation at G0 phase at 3 uM after 24 hrs by propidium iodide staining-based FACS analysis (reference value: 1.5%). It is filed as functional. The note with it: Ca-Ski.
Test [20] deals with Ca-Ski. As to the kind of experiment: Induction of apoptosis in human CaSki cells carrying HPV assessed as reduction of E6 mRNA expression at 0.3 uM after 24 hrs by RT-PCR analysis. It is filed as functional, cell-based.
A short description of test [21]: Cell cycle arrest in human CaSki cells assessed as accumulation at S phase at 3 uM after 24 hrs by propidium iodide staining-based FACS analysis (reference value: 14.1%). It is filed as functional. The note with it: Ca-Ski.
Test [22] in a line: Cytotoxicity against human ChaGo cells after 72 hrs by MTT assay. It is filed as functional, cell-based.
The nature of test [23]: Cytotoxicity against human KATO III cells after 72 hrs by MTT assay. It is filed as functional, cell-based, KATO III cell.
The subject of test [24] is Ca-Ski. Description: Inhibition of colony formation in human CaSki cells at 5 uM after 24 hrs by crystal violet staining-based fluorescence microscopy. It is filed as functional, cell-based.
The nature of test [25]: Cell cycle arrest in human CaSki cells assessed as accumulation at G1 phase at 3 uM after 24 hrs by propidium iodide staining-based FACS analysis (reference value: 61.3%). It is filed as functional. The note with it: Ca-Ski.
The test system of test [26] is Ca-Ski. Description: Induction of apoptosis in human CaSki cells carrying HPV assessed as increase in p53 protein expression after 24 hrs by Western blotting analysis. It is filed as functional, cell-based.
Test [27] relates to Ca-Ski. As to the kind of experiment: Induction of apoptosis in human CaSki cells carrying HPV assessed as inhibition of Bcl-2 protein expression at 0.3 uM after 24 hrs by Western blotting analysis. It is filed as functional, cell-based.
The subject of test [28] is Ca-Ski. Description: Induction of apoptosis in human CaSki cells carrying HPV assessed as increase in procaspase-3 protein expression after 24 hrs by Western blotting analysis. It is filed as functional, cell-based.
In test [29] the test system is Ca-Ski. As to the kind of experiment: Induction of apoptosis in human CaSki cells by DAPI staining-based fluorescence microscopy. It is filed as functional, cell-based.
The subject of test [30] is HepG2. As to the kind of experiment: Cytotoxicity against human HepG2 cells after 72 hrs by MTT assay. It is filed as functional, cell-based. The note with it: HepG2, 72 h.
A short description of test [31]: Cytotoxicity against human CaSki cells after 72 hrs by MTT assay. As to conditions: Ca-Ski. It is filed as functional, cell-based.

The source made the active and inactive calls. No cut-off for these calls is given here.

As to `Cc1ccc(S(=O)(=O)Oc2ccc(NCCc3ccccc3)c3c2C(=O)c2ccccc2C3=O)cc1`, the Activity stood at 8.3% in [1]; 27.4% in [2]; 49.5% in [3]; 13.3% in test [4]; 42.5% in [5].
As to `Cc1ccc(S(=O)(=O)Oc2ccc(NCc3ccccc3)c3c2C(=O)c2ccccc2C3=O)cc1`, the Activity in test [6] turned out to be 11%; in test [1], 40.5%; in test [7], 62%; in test [8], 46.2%; in test [10], 33.8%; in [11], 31.7%. The Activity in test [12] is 19.5%; in [13], 12.6%; in test [14], 1.9%; in test [15], 13.7%; in test [17] it was “Dose-dependent effect”; in [18], “Dose-dependent effect”. Also, the Activity was found to be 84.5% in [2]; 10.9% in test [19]; 14.2% in test [21]; 49.1% in test [3]; 39.8% in [4]; 12.4% in test [25]. Besides, the Activity in [5] was 41.5%; in test [29], “Dose-dependent effect”. The outcome in test [9], in test [20], in test [26] and in [28] was Active. Besides, the IC50 (usually the midpoint of a concentration-inhibition curve) is greater than 10 µM in [16], greater than 5.7 µM in test [22], greater than 5.7 µM in [23] and greater than 5.7 µM in [30]. Further, the inhibition entry in test [24] and in test [27] was “Active” in each case.
`O=C1c2ccccc2C(=O)c2c(O)ccc(O)c21` [QUINIZARIN]: the Activity in test [1] is on record as 5.6%; in test [2], 48.6%; in test [3] it was 21.1%; in test [4] it was 12.3%; in test [5], 38.4%. In test [31], this compound gave an IC50 greater than 10000 nM.
For `Cc1ccc(S(=O)(=O)Oc2ccc(NCCN3CCOCC3)c3c2C(=O)c2ccccc2C3=O)cc1`, the Activity in test [1] was 11.1%; in test [2] it was 42.8%; in test [3] it was 19.4%; in [4], 4.9%; in [5] it was 29.3%.
For `Cc1ccc(S(=O)(=O)Oc2ccc(N3CCOCC3)c3c2C(=O)c2ccccc2C3=O)cc1` the same measures were 6.1%, 43.8%, 22.3%, 11.3% and 35.3%.
Taken in the same sequence, the figures for `Cc1ccc(S(=O)(=O)Oc2ccc(OS(=O)(=O)c3ccc(C)cc3)c3c2C(=O)c2ccccc2C3=O)cc1` were 11.9%, 36.4%, 22.2%, 5.8% and 31.1%.
`CCN(CC)c1ccc(OS(=O)(=O)c2ccc(C)cc2)c2c1C(=O)c1ccccc1C2=O`: the Activity is given as 35.6% in test [1]; 50% in test [2]; 32.6% in test [3]; 43.9% in test [4]; 39.9% in test [5]. In [31], this compound returned an IC50 of 300 nM.
